# Results from patent publication EP2340832A1, “Morphinan-6-one compounds for the treatment or prevention of neurodegenerative diseases” (Universität Innsbruck, priority 2009, dated 2011).
# Read-outs that look alike come from different tables or passages of the source.
# Assays:
# δ receptor = target: T1, δ receptor (Rattus norvegicus, UniProt P33533); assay: [35S]GTPγS functional assay, rat brain membranes, δ receptor; assay type: biochemical, Sprague-Dawley rat
# T1 construct: Membrane fractions were prepared from Sprague-Dawley rat or guinea pig brains; from tissue; host or cells: Sprague-Dawley rat brain (without cerebella) membranes
# Method: (§1) Membrane fractions were prepared from Sprague-Dawley rat or guinea pig brains as described above. To determine binding of [^35S]GTPyS, rat or guinea pig brain membranes (10 µg of protein) were incubated for 60 min at 30 °C in Tris-EGTA buffer (50 mM Tris-HCl buffer, 3 mM MgCl2, 1 mM EGTA, […], pH 7.4) containing 30 µM GDP, 0.05 nM [^35S]GTPyS and appropriate concentrations of the respective compounds according to the present invention in a final volume of 1 ml. The reaction was terminated by vacuum filtration through Whatman GF/B glass fibre filters. Filters were washed three times with ice-cold 50 mM Tris-HCI buffer (pH 7.4) and the bound radioactivity was measured by liquid scintillation counting (Beckman Coulter™ LS6500). Basal activity was determined by subtracting the non-specific binding (measured in the presence of 100 µM unlabelled GTPyS) from the total binding (measured in the absence of the compound).
# (§2) Stimulation produced by the compound is given as percentage of the basal activity (given as 100%). Functional data, EC50 (nM; half maximal effective concentration) and maximal stimulation Emax (% stimulation over basal level; maximal effective concentration), were calculated by using nonlinear regression analysis and sigmoidal curve fitting GraphPad Prism (San Diego, CA, USA) program. The values are expressed as the mean ± S.E.M of at least 3 independent experiments, each performed in triplicate. Statistical analysis was carried out using SPSS software (SPSS Inc., Chicago, lL, USA) and the Student T-test was used to compare different assay conditions. A ρ value < 0.05 was considered statistically significant.
# K receptor = target: T2, K receptor (Cavia porcellus, UniProt P41144); assay type: biochemical, guinea pig
# T2 construct: Membrane fractions were prepared from Sprague-Dawley rat or guinea pig brains; from tissue; host or cells: guinea pig brain (without cerebella) membranes
# [1] = system: frontal cortex synaptosomes; assay: ACh release from synaptosomes (15 mM K+-evoked [3H]-ACh release, superfusion); assay type: cell-based, male Sprague Dawley rats; conditions: 15 mM K+
# Method: Preparation of synaptosomes: synaptosomes were prepared from brain frontal cortex of male Sprague Dawley rats (4 months old). The frontal cortex was rapidly dissected on ice and homogenized in 40 volumes of 0.32 M sucrose buffered at pH 7.4 with 0.01 M sodium phosphate. The homogenate was centrifuged at 1,000 g for 5 min. The crude synaptosomal pellet was obtained by centrifugation of the supernatant at 15,000 g for 20 min and was resuspended in 5 ml basal medium (125 mM Nacl, 3 mM KCI, 1.2 mM MgS04, 1.2 mM CaCl2, 1.0 mM NaH2PO4, 22 mM NaHCO3 and 10 mM glucose) which had been gassed with 95% O2 - 5% CO2 at 37 °C, pH 7.2 - 7.4.
# Superfusion protocol: The synaptosomal suspension was incubated with [^3H]-choline (0.03 µM, 17.5x10^6 Bq/g) for 15 min at 37 °C. Then, the suspension was diluted (1:8) and aliquots were applied on filters in a continuous superfusion system with parallel chambers maintained at 37 °C. The media used for superfusion were basal medium and 15 mM K^+-containing stimulation medium. Both media were supplemented with ACh (1 µM) to facilitate the effectiveness of an allosteric potentiating ligand at the nicotine receptor and with atropine (0.1 µM) to block M2 presynaptic receptors. Synaptosomes were superfused with basal medium for 30 min to reach a constant outflow of [^3H]-ACh. Under these experimental conditions, the radioactivity released consisted largely of newly synthesized [^3H]-ACh. The K^+-stimulated release of [^3H]-ACh was determined in 2 subsequently collected fractions: 6 min basal release (superfusion with basal medium) and 6 min K^+-evoked release (superfusion for 1.5 min with 15 mM K^+-containing medium followed by […] basal medium). The test compounds galantamine, 4 and 2 were present in the superfusion medium concomitantly with 15 mM K^+ (for 1.5 min). Basal release of [^3H]-ACh (continuous superfusion with basal medium) was determined by collection of a 6 min sample followed by four subsequent 2 min samples. Aliquots of samples were mixed with scintillation liquid and the radioactivity quantified with a scintillation counter. The radioactivity bound to the filters was also measured.
# Statistical analysis: The amount of [^3H]-ACh released in each sample was calculated as fraction of total synaptosomal tritium at the start of the respective collection period (tritium in the sample / sum of tritium in the respective fractions and in the synaptosomes on the filter). K^+-evoked release was expressed as percentage of basal release rate. Each n=1 represents the mean of an experiment with one synaptosomal preparation in at least 3 superfusion chambers. Statistical significance of group variances was calculated by one way ANOVA followed by Bonferroni's test.
# [2] = system: extracellular ACh concentration in the nucleus accumbens; conditions: for 0AUC120 min (% increase x min) Mean ± SEM: 0 to 120 min; for Increase in ACh release (Peak increase as % of basal output): nucleus accumbens
# µ opioid receptor [3] = target: T3, µ opioid receptor (Rattus norvegicus, UniProt P33535); assay: [35S]GTPγS functional assay, rat brain membranes, µ receptor; assay type: biochemical, Sprague-Dawley rat; parameters: Membrane fractions were prepared from Sprague-Dawley rat or guinea pig brains; from tissue; host or cells: Sprague-Dawley rat brain (without cerebella) membranes
# Method: as §1, §2
# [4] = target: σ receptors labelled by [^3H]DTG (σ1 + σ2); assay: Sigma receptor binding assay, [3H]DTG; conditions: read-out: IC50 ± SEM [^3H]DTG (σ1 + σ2); guinea pig brain membranes; compounds 1-5 tested up to 10 µM
# Method: (§3) Filters were washed three times with 5 ml of ice-cold 10 mM Tris-HCI buffer (pH 8). The bound radioactivity was measured by liquid scintillation counting (Beckman Coulter™ LS6500). […] The values are expressed as the mean ± S.E.M of 2 - 4 independent experiments, each performed in duplicate.
# [5] = target: T4, σ receptors labelled by [^3H](+)-pentazocine (σ1) (Cavia porcellus, UniProt Q60492); assay: Sigma receptor binding assay, [3H](+)-pentazocine; parameters: species or system guinea pig
# T4 construct: from tissue; host or cells: guinea pig brain membranes
# Method: as §3
# C57BL/6N female mice [6] = assay: T-maze continuous alternation; conditions: normal mice
# C57BL/6N female mice [7] = assay: Object recognition task; conditions: normal mice, 0.03 µmol i.c.v.
# k opioid receptors = target: T5, k opioid receptors (Cavia porcellus, UniProt P41144); assay: Opioid receptor binding assay, [3H]U69,593, guinea pig brain membranes
# T5 construct: Membrane fractions were prepared from Sprague-Dawley rat or guinea pig brains; from tissue; host or cells: guinea pig brain (without cerebella) membranes
# Method: (§4) Briefly, brains without cerebella were homogenised on ice in 5 volumes of ice-cold 50 mM Tris-HCI buffer (pH 7.4) and diluted in 30 volumes of the same buffer. After centrifugation at 40,000 x g for 20 min at 4°C, the pellets were resuspended in 30 volumes of Tris-HCI buffer and incubated at 37 °C for 30 min (rat brain) or for 10 min (guinea pig brain). The centrifugation step was repeated and the final pellets were resuspended in 5 volumes of 50 mM Tris-HCI buffer (pH 7.4) containing 0.32 M sucrose to give a protein concentration of 4 - 6 mg/ml. Protein concentration was determined by the method of Bradford using bovine serum albumin as standard.
# (§5) Binding experiments were performed in 50 mM Tris-HCI buffer (pH 7.4) in a final volume of 1 ml containing 0.3 - 0.5 mg protein and different concentrations of the compounds. […] Guinea pig brain membranes were incubated with [^3H]U69,593 (30 min, 30 °C). Non-specific binding was determined in the presence of 10 µM unlabeled naloxone. […] Inhibition constant (Ki) values were calculated from competition binding curves using GraphPad Prism (San Diego, CA, USA) program. The values are expressed as the mean ± S.E.M of 2-4 independent experiments, each performed in duplicate.
# (§6) The morphinan-6-one compounds of the present invention were evaluated in in vitro receptor binding assays for their interaction abilities with µ, δ and k opioid receptors. […] The affinities of the compounds at k opioid receptors were determined by displacement of [^3H]U69,593 using guinea pig brain membranes.
# µ opioid receptor [8] = target: T3, µ opioid receptor; assay: Opioid receptor binding assay, [3H]DAMGO, rat brain membranes; parameters: Membrane fractions were prepared from Sprague-Dawley rat or guinea pig brains; from tissue; host or cells: Sprague-Dawley rat brain (without cerebella) membranes; species or system Sprague-Dawley rat
# Method: as §4, §5, §6
# δ opioid receptors = target: T6, δ opioid receptors (Rattus norvegicus, UniProt P33533); assay: Opioid receptor binding assay, [3H][Ile5,6]deltorphin II, rat brain membranes; parameters: species or system Sprague-Dawley rat
# T6 construct: Membrane fractions were prepared from Sprague-Dawley rat or guinea pig brains; from tissue; host or cells: Sprague-Dawley rat brain (without cerebella) membranes
# Method: as §4, §5, §6
# T3 sequence (P33535 whole entry): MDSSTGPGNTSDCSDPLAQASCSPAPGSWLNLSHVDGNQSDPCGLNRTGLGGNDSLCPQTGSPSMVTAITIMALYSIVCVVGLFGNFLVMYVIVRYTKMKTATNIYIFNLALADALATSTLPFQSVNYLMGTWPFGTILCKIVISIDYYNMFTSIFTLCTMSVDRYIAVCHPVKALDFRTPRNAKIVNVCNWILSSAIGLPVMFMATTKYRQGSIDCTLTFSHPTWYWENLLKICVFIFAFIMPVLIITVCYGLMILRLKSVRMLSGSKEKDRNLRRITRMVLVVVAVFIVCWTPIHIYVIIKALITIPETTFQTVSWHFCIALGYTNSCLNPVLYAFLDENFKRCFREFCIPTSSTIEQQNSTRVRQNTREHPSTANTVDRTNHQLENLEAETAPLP
# T5 sequence (P41144 whole entry): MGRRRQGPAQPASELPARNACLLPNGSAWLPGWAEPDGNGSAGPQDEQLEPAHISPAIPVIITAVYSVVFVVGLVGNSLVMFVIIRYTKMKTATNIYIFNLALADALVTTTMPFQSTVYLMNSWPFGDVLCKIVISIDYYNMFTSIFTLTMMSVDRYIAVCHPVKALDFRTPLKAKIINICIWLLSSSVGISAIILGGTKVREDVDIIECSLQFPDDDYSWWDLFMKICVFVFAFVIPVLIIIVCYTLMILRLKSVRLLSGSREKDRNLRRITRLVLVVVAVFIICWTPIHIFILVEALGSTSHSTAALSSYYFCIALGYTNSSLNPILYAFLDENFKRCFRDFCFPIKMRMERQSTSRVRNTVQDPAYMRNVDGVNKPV
# T1 sequence (P33533 whole entry): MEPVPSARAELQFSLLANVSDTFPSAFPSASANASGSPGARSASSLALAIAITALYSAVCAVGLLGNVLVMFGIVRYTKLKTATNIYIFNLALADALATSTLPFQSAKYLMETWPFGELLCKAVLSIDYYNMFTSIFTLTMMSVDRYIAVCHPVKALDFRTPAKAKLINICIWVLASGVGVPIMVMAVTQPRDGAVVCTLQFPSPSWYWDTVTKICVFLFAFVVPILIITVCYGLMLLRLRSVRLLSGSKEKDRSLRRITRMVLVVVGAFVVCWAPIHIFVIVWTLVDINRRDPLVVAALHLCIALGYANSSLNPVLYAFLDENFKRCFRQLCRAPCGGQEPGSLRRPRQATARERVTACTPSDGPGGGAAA
# T6 sequence (P33533 whole entry): as above
# T2 sequence (P41144 whole entry): as the sequence (P41144 whole entry) above
# T4 sequence (Q60492 whole entry): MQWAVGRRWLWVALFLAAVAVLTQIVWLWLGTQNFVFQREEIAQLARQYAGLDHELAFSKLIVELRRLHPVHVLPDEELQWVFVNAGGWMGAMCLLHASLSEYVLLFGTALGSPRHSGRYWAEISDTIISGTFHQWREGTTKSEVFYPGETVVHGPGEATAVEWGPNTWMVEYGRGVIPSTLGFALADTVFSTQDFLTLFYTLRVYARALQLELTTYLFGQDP
smiles,measurement,setting,value
"C=CCN1C[C@H](C)N([C@H](c2ccc(C(=O)N(CC)CC)cc2)c2cccc(OC)c2)C[C@H]1C [SNC 80, reference compound]",Emax,"δ receptor; data not shown, read-out: Emax (% of basal activity)",137 ± 4%
"Oc1ccc2c3c1O[C@H]1c4[nH]c5ccccc5c4C[C@@]4(O)[C@@H](C2)N(CC2CC2)CC[C@]314 [naltrindole, reference compound]",effect on [35S]GTPγS binding stimulated by SNC 80,"δ receptor; compound 10 µM, SNC 80 10 µM",markedly decreased
"Oc1ccc2c3c1O[C@H]1c4[nH]c5c(c4C[C@@]4(O)[C@@H](C2)N(CC2CC2)CC[C@]314)C[C@@]1(O)[C@H]2Cc3ccc(O)c4c3[C@@]1(CCN2CC1CC1)[C@H]5O4 [Nor-BNI, reference compound]","effect on [35S]GTPγS binding stimulated by U69,593",K receptor,highly effective in inhibiting
"COc1ccc2c3c1O[C@H]1C[C@@H](O)C=C[C@@]31CCN(C)C2 [Galantamine, galantamine, reference compound]",concentration of maximal effect on stimulation-evoked ACh release,[1],1 µM
same,0AUC120 min (% increase x min) Mean ± SEM,[2]; Dose 0.5 µmol i.c.v.,642 ± 85 % increase x min
same,Increase in ACh release (Peak increase as % of basal output),[2]; Dose 0.5 µmol i.c.v.,118 ± 29 %
same,0AUC120 min (% increase x min) Mean ± SEM,[2]; Dose 1 µmol i.c.v.,1857 ± 173 % increase x min
same,Increase in ACh release (Peak increase as % of basal output),[2]; Dose 1 µmol i.c.v.,101 ± 42 %
"COc1cccc2c1[C@]13CCN(CC4CC4)[C@H](C2)[C@]1(OC)CCC(=O)C3 [cyprodime, reference compound]",effect on [35S]GTPγS binding stimulated by DAMGO,"µ opioid receptor [3]; compound 10 µM, DAMGO 10 µM, rat brain membranes",significantly decreased
"CC(C)=CCN1CCC2(C)c3cc(O)ccc3CC1C2C (racemic) [(±)Pentazocine, reference compound]",IC50,[4],54.6 ± 5.3 nM
"Nc1c2c(nc3ccccc13)CCCC2 [Tacrine, tacrine, reference compound]",dose dependence of the increase in extracellular brain ACh,"[2]; rat, in vivo",pronounced and dose-dependent increases
"CCCN1CCC[C@H](c2cccc(O)c2)C1 [(+)-3-PPP, reference compound]",IC50,[5],68.2 ± 4.8 nM
"CN1[C@@H]2C[C@@H](OC(=O)[C@H](CO)c3ccccc3)C[C@H]1[C@@H]1O[C@@H]12 [Scopolamine, scopolamine, reference compound]",running time,C57BL/6N female mice [6]; 0.033 µmol,only a moderate increase
same,spontaneous alternation,C57BL/6N female mice [6]; 0.033 µmol,profound decrease
same,running time,"C57BL/6N female mice [6]; dose series, bell-shaped curve, not shown",strong increase
same,spontaneous alternation,"C57BL/6N female mice [6]; dose series, not shown",dose-dependent reduction
same,"object recognition, exploration ratio novel/familiar object",C57BL/6N female mice [7],close to one
"C=CCN1CC[C@]23CC(=O)CC[C@@]2(OC)[C@H]1Cc1cccc(OC)c13 [4,14-dimethoxy-N-allyl-morphinan-6-one]",function at the µ opioid receptor,µ opioid receptor [3],antagonistic function
"Cc1ccccc1NC(=N)Nc1ccccc1C [DTG, reference compound]",IC50,[4],126 ± 5 nM
"O=CN1CC[C@]23c4c5cccc4OC2C(=O)CC[C@H]3[C@H]1C5 (some centres unmarked) [4,5-epoxy-N-formylmorphinan-6-one]",binding to opioid receptor K (in words),k opioid receptors,does not bind
same,binding to opioid receptor µ (in words),µ opioid receptor [8],does not bind
same,binding to opioid receptor δ (in words),δ opioid receptors,does not bind
"O=CN1CC[C@]23CC(=O)CC[C@H]2[C@H]1CC1=C3C(=O)C=CC1=O [1,4-dione-N-formylmorphinan-6-one]",binding to opioid receptor K (in words),k opioid receptors,does not bind
same,binding to opioid receptor µ (in words),µ opioid receptor [8],does not bind
same,binding to opioid receptor δ (in words),δ opioid receptors,does not bind
"C=CCN1CC[C@]2(C)c3cc(O)ccc3C[C@H]1[C@H]2C [(+)-SKF-10,047, reference compound]",IC50,[4],291 ± 14 nM
